According to PMC9884426, “A phase 1 clinical trial of the repurposable acetyllysine mimetic, n-methyl-2-pyrrolidone (NMP), in relapsed or refractory multiple myeloma” (Clinical Epigenetics, 2023):
Where two headings read alike, the source gives them in different places.

Assay: Plasma pharmacokinetics of oral NMP by LCMSMS
Format: in vivo, human
Details: for AUC / Cmax / half-life / Tmax: human, po
Protocol: Blood samples were taken from patients before NMP and at one, two, four, eight and 24 h post dose. Plasma samples (20 μl) were prepared by adding five volumes of methanol containing deuterated internal standard. The samples were vortexed then centrifuged, and the supernatant was transferred to a vial and injected onto the LCMSMS. The LCMSMS system consisted of a Shimadzu UHPLC with a SCIEX 6500QTrap, a KinetexC18 (3 × 50 mm, 2.6 μm) column and using a gradient of 0.1% formic acid and acetonitrile. The initial conditions were 0.5 ml/min and 2% acetonitrile; this was held for 1 min then increased to 20% acetonitrile at 2 min then increased to 70% acetonitrile and held for 0.5 min. Equilibration time was 0.5 min. MRMs for NMP were 100 → 58, 100 → 69, 100 → 41 and for the internal standard d9NMP 109 → 62, […]. PK analysis was performed using Pkanalix (version 2021R1. Antony, France: Lixoft SAS, 2021).

[1] = all dose levels 25-800 mg oral, N = 28 profiles, plasma

With `CN1CCCC1=O` [NMP, N-methyl-2-pyrrolidone] the “Maximum plasma concentration (Cmax), highest achieved” value (800 mg dose, oral, one patient) was 16700 ng/mL, the “CL/F, Overall Average” value [1] was 19.25 L⋅h⁻¹ and the “Half-life, Overall Average” value [1] was ~ 1.5 h. For the same compound, the “V/F, Overall Average” value [1] was 39.49 L, the “Tmax, Overall Average” value (all dose levels 25-800 mg oral, N = 29 profiles, plasma) was 33 min and the “single NMP dose predicted to be required to attain BET-inhibitory peak plasma concentrations” value (e.g. > 1 mM peak plasma, based on NMP's PK) was “more than 4.5 g”. For the same compound, the AUC (plasma, 25 mg, oral 25 mg, patient RMH-01 occasion 6, plasma, read-out: AUC) was 1500 ng·h/mL, the Cmax (plasma, 25 mg, oral 25 mg, patient RMH-01 occasion 6, plasma, read-out: Cmax) was 930 ng/mL and the half-life (plasma, 25 mg, oral 25 mg, patient RMH-01 occasion 6, plasma, read-out: Half-life (converted)) was 52.2 min. The Tmax (plasma, 25 mg, oral 25 mg, patient RMH-01 occasion 6, plasma, read-out: Tmax) was 30 min, the AUC (plasma, 50 mg, oral 50 mg, average of N = 5 profiles, plasma, read-out: AUC, Average) was 2170 ng·h/mL and the Cmax (plasma, 50 mg, oral 50 mg, average of N = 5 profiles, plasma, read-out: Cmax, Average) was 1260 ng/mL. For the same compound, the half-life (plasma, 50 mg, oral 50 mg, average of N = 5 profiles, plasma, read-out: Half-life, Average (converted)) was 64.8 min, the Tmax (plasma, 50 mg, oral 50 mg, average of N = 5 profiles, plasma, read-out: Tmax, Average) was 30 min and the AUC (plasma, 50 mg, oral 50 mg, individual profiles, patient RMH-01 occasions 1-5, plasma, read-out: AUC) was 2830 ng·h/mL. It also gave a Cmax (plasma, 50 mg, oral 50 mg, individual profiles, patient RMH-01 occasions 1-5, plasma, read-out: Cmax) of 1720 ng/mL, a half-life (plasma, 50 mg, oral 50 mg, individual profiles, patient RMH-01 occasions 1-5, plasma, read-out: Half-life (converted)) of 72.6 min and a Tmax (plasma, 50 mg, oral 50 mg, individual profiles, patient RMH-01 occasions 1-5, plasma, read-out: Tmax) of 30 min. For the same compound, the AUC (plasma, 100 mg, oral 100 mg, average of N = 5 profiles, plasma, read-out: AUC, Average) was 7130 ng·h/mL, the Cmax (plasma, 100 mg, oral 100 mg, average of N = 5 profiles, plasma, read-out: Cmax, Average) was 2570 ng/mL and the half-life (plasma, 100 mg, oral 100 mg, average of N = 5 profiles, plasma, read-out: Half-life, Average (converted)) was 110 min. For the same compound, the Tmax (plasma, 100 mg, oral 100 mg, average of N = 5 profiles, plasma, read-out: Tmax, Average) was 30 min, the AUC (plasma, 100 mg, oral 100 mg, individual profiles, patient RMH-02 occasions 1-5, plasma, read-out: AUC) was 6970 ng·h/mL and the Cmax (plasma, 100 mg, oral 100 mg, individual profiles, patient RMH-02 occasions 1-5, plasma, read-out: Cmax) was 2730 ng/mL. For the same compound, the half-life (plasma, 100 mg, oral 100 mg, individual profiles, patient RMH-02 occasions 1-5, plasma, read-out: Half-life (converted)) was 101 min, the Tmax (plasma, 100 mg, oral 100 mg, individual profiles, patient RMH-02 occasions 1-5, plasma, read-out: Tmax) was 30 min and the half-life (plasma, 200 mg, oral 200 mg, average of N = 8 profiles, plasma, read-out: Half-life, Average (converted)) was 88.2 min. For the same compound, the AUC (plasma, 200 mg, oral 200 mg, average of N = 9 profiles, plasma, read-out: AUC, Average) was 9510 ng·h/mL, the Cmax (plasma, 200 mg, oral 200 mg, average of N = 9 profiles, plasma, read-out: Cmax, Average) was 4050 ng/mL and the Tmax (plasma, 200 mg, oral 200 mg, average of N = 9 profiles, plasma, read-out: Tmax, Average) was 33.6 min. For the same compound, the half-life (plasma, 200 mg, oral 200 mg, individual profiles (PMC-03, MON-04, MON-06, MON-07, PMC-08), plasma, read-out: Half-life (converted)) was 84 min, the Tmax (plasma, 200 mg, oral 200 mg, individual profiles (PMC-03, MON-04, PMC-05, MON-06, MON-07, PMC-08), plasma, read-out: Tmax) was 30 min and the AUC (plasma, 300 mg, oral 300 mg, average of N = 3 profiles, plasma, read-out: AUC, Average) was 22200 ng·h/mL. For the same compound, the Cmax (plasma, 300 mg, oral 300 mg, average of N = 3 profiles, plasma, read-out: Cmax, Average) was 8060 ng/mL, the half-life (plasma, 300 mg, oral 300 mg, average of N = 3 profiles, plasma, read-out: Half-life, Average (converted)) was 96 min and the Tmax (plasma, 300 mg, oral 300 mg, average of N = 3 profiles, plasma, read-out: Tmax, Average) was 40.2 min. The Cmax (plasma, 300 mg, oral 300 mg, individual profiles (PMC-09, MON-10, MON-11), plasma, read-out: Cmax) was 10500 ng/mL, the half-life (plasma, 300 mg, oral 300 mg, individual profiles (PMC-09, MON-10, MON-11), plasma, read-out: Half-life (converted)) was 99.6 min and the Tmax (plasma, 300 mg, oral 300 mg, individual profiles (PMC-09, MON-10, MON-11), plasma, read-out: Tmax) was 30 min. It also gave an AUC (plasma, 400 mg, oral 400 mg, average of N = 2 profiles, plasma, read-out: AUC, Average) of 22200 ng·h/mL, a Cmax (plasma, 400 mg, oral 400 mg, average of N = 2 profiles, plasma, read-out: Cmax, Average) of 8310 ng/mL and a half-life (plasma, 400 mg, oral 400 mg, average of N = 2 profiles, plasma, read-out: Half-life, Average (converted)) of 94.2 min. For the same compound, the Tmax (plasma, 400 mg, oral 400 mg, average of N = 2 profiles, plasma, read-out: Tmax, Average) was 30 min, the AUC (plasma, 400 mg, oral 400 mg, individual profiles (MON-11 occasion 2, MON-12), plasma, read-out: AUC) was 28500 ng·h/mL and the Cmax (plasma, 400 mg, oral 400 mg, individual profiles (MON-11 occasion 2, MON-12), plasma, read-out: Cmax) was 8990 ng/mL. It also gave a half-life (plasma, 400 mg, oral 400 mg, individual profiles (MON-11 occasion 2, MON-12), plasma, read-out: Half-life (converted)) of 107 min, a Tmax (plasma, 400 mg, oral 400 mg, individual profiles (MON-11 occasion 2, MON-12), plasma, read-out: Tmax) of 30 min and an AUC (plasma, 500 mg, oral 500 mg, patient MON-11 occasion 3, plasma, read-out: AUC) of 40600 ng·h/mL. It also gave a Cmax (plasma, 500 mg, oral 500 mg, patient MON-11 occasion 3, plasma, read-out: Cmax) of 12700 ng/mL, a half-life (plasma, 500 mg, oral 500 mg, patient MON-11 occasion 3, plasma, read-out: Half-life (converted)) of 119 min and a Tmax (plasma, 500 mg, oral 500 mg, patient MON-11 occasion 3, plasma, read-out: Tmax) of 30 min. For the same compound, the AUC (plasma, 600 mg, oral 600 mg, patient MON-11 occasion 4, plasma, read-out: AUC) was 56700 ng·h/mL, the Cmax (plasma, 600 mg, oral 600 mg, patient MON-11 occasion 4, plasma, read-out: Cmax) was 14400 ng/mL and the half-life (plasma, 600 mg, oral 600 mg, patient MON-11 occasion 4, plasma, read-out: Half-life (converted)) was 130 min. For the same compound, the Tmax (plasma, 600 mg, oral 600 mg, patient MON-11 occasion 4, plasma, read-out: Tmax) was 30 min and the AUC (plasma, 700 mg, oral 700 mg, patient MON-11 occasion 5, plasma, read-out: AUC) was 57600 ng·h/mL.
